Assay results reported in patent US7820379B2, “Process for high throughput screening of CpG-based immuno-agonist/antagonist” (Coley Pharmaceutical GmbH, priority 2000, dated 2010).

Columns and labels:
[1] = system: murine splenocytes; assay: IL-12 production in murine splenocytes; type: cell-based; settings: ODN titration, after 8 hours
From the text: By iterative examination of the flanking sequences surrounding CG dinucleotides, CpG-motifs have been identified. Paradoxically, or by twist of nature, the human optimal CpG-motif, GTCGTT (SEQ ID NO:66), is different from the murine motif, GACGTT (SEQ ID NO:129). Human peripheral blood mononuclear cells (PBMC) (FIG. 10A) and murine splenocytes (FIG. 10B) were stimulated with ODN 2006 (filled circle, […], SEQ ID NO:112), ODN 2006-GC (open circle), ODN 1668 (filled triangle, […], SEQ ID NO:84) or ODN 1668-GC (open triangle, […], SEQ ID NO:85) at indicated concentrations and IL-12 production was monitored after 8 hours. […] It should also be noted that the Kac (concentration of half-maximal activation) of murine splenocytes for 1668 was greater than human PBMC for 2006 (compare FIG. 10A to FIG. 10B).

[2] = biological target: T1, human TLR9 (Homo sapiens, UniProt Q9NR96, H530R/Q688R); assay: IL-8 production by ELISA in 293 cells transfected with human TLR9; type: cell-based; settings: 293 cells transiently transfected with hTLR9 alone; 48 h; ODN 2 μM, LPS 100 ng/ml
T1 construct: expressed in transfected cells
T1 sequence (Q9NR96 26-1032 H530R/Q688R): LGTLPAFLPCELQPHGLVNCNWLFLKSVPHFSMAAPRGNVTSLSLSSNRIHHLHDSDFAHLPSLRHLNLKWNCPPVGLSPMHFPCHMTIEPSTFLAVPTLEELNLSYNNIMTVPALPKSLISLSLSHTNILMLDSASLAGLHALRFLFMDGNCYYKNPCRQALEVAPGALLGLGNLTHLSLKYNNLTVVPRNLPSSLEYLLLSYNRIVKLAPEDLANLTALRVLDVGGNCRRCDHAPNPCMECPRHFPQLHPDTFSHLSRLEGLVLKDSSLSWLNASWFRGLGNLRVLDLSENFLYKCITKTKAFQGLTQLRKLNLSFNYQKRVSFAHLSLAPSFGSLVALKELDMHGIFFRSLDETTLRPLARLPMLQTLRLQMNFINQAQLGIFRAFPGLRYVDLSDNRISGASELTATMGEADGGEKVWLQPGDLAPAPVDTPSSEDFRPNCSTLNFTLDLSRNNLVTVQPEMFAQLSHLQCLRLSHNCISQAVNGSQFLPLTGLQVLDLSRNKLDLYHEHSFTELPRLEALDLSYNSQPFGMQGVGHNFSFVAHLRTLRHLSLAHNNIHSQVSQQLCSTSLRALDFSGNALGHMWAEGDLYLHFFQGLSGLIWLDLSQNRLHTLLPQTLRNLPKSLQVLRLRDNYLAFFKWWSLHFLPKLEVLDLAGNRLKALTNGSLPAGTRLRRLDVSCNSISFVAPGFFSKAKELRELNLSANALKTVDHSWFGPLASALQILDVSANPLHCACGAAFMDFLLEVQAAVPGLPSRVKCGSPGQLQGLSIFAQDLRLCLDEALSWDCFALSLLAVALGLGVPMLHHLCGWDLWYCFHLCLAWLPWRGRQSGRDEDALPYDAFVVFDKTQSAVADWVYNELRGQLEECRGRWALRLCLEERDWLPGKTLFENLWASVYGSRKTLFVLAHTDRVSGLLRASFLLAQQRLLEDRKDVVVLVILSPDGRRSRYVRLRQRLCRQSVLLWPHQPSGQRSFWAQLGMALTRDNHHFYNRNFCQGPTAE
From the text: Since NF-κB activation is central to the IL-1/TLR signal transduction pathway (Medzhitov R et al., Mol Cell 2:253-258 (1998); Muzio M et al., J Exp Med 187:2097-2101 (1998)), cells were transfected with hTLR9 or co-transfected with hTLR9 and a NF-κB-driven luciferase reporter construct. Human fibroblast 293 cells were transiently transfected with (FIG. 1A) hTLR9 and a six-times NF-κB-luciferase reporter plasmid (NF-κB-luc, kindly provided by Patrick Baeuerle, Munich, Germany) or (FIG. 1B) with hTLR9 alone. After stimulus with CpG-ODN (2006, 2 μM, […], SEQ ID NO:112), GpC-ODN (2006-GC, 2 μM, […], SEQ ID NO:118), LPS (100 ng/ml) or media, NF-κB activation by luciferase readout (8 h, FIG. 1A) or IL-8 production by ELISA (48 h, FIG. 1B) were monitored. Results are representative of three independent experiments. […]
Because stable TLR9 transfectants mirrored primary cell responsiveness to CpG-DNA (FIGS. 4 and 5), it was hypothesized that stable transfectants could potentially discern species-specific CpG-motifs through TLR9 receptors. […] Depicted are both NF-κB-driven luciferase and IL-8 production as readout. […] After lysis of the cells luciferase can be detected photometrically based on an enzymatic reaction by luciferase which creates photons. IL-8 production was monitored using enzyme-linked immunosorbent assay (ELISA). […]

[3] = system: plasmacytoid DC (CD123+DC); assay: Cytokine production by plasmacytoid dendritic cells (ELISA); type: cell-based, human; settings: purified CD123+DC; ODN 2 μM, LPS 100 ng/ml
Method: Human dendritic cells (DC) have been claimed to be responsive to CpG-DNA. […] The converse was true for stimulation of monocyte-derived dendritic cells (MDDC) (FIG. 8 and unpublished data). […] IL-8 and TNF concentration was determined by enzyme-linked immunosorbent assay (ELISA). The CD123+DC response was DNA- and CpG-motif restricted. […] Due to this segregated response we analyzed TLR expression.

| Substance | IL-12 production [1] | IL-8 production by ELISA [2] | cytokine production by CD123+DC [3] |
| --- | --- | --- | --- |
| TCCATGACGTTCCTGATGCT (listed as DNA, chemistry not fully specified) [ODN 1668] | induced optimal IL-12 |  |  |
| TCGTCGTTTTGTCGTTTTGTCGTT [ODN 2006] | much less effective | responded | produced IFN-α, TNF, GM-CSF, and IL-8 |
| lipopolysaccharide [LPS] |  | not | not |
